Measurements from patent US20260242359A1, “IRHOM2 INHIBITORS AND USES THEREOF” (NEW YORK SOCIETY FOR THE RELIEF OF THE RUPTURED AND …, priority 2023, published 2026).

Key:
[1] = tested on: PMA-induced release of endogenous TGFα from human PC3 prostate cancer cells; test: Example 17: ELISA-based TGFα release assay, PMA-induced, PC3 prostate cancer cells; format: cell-based; conditions: 10 μM final concentration, PMA 25 ng/ml, delta Buffer stimulated vs unstimulated = 100% inhibition; for inhibition at 10 µM: Homo sapiens
Procedure: In the following study, ELISA-based TGFα release assays were performed to analyze the inhibitory effects of Compounds 1, 2, 3, 4, 5, and 7 on PMA-induced release of endogenous TGFα, from human PC3 prostate cancer cells. The ELISA-based TGFα release assay that was used in this example is described below.
In brief, on day 1, Nunc black MaxiSorp® 96-well plates (Thermo Fisher Scientific, USA) were coated overnight with 100 μl per well of goat anti-human TGFα capture antibody (provided as part of the DuoSet ELISA kit) at 0.4 μg/ml TBS at 4° C.
75,000 PC3 (European Collection of Authenticated Cell Cultures, UK) cells in 100 μl of normal growth medium were seeded in each well of F-bottom 96-well cell culture plates (Corning, USA) and incubated at 37° C., 5% CO2 overnight. On day 2, the capture antibody solution was removed and MaxiSorp® plates were blocked with 300 μl per well of TBS, 1% BSA at room temperature for 5 hours. Meanwhile, cells were washed twice with PBS and pre-incubated in 80 μl of OptiMEM medium with 20 μl per well of OptiMEM medium supplemented with Batimastat (BB94, Abcam, UK) at 50 μM as positive control (for a final concentration of 10 μM in the resulting 100 μl sample volume), compounds of the invention at 50 μM (for a final concentration of 10 μM in the resulting 100 μl sample volume) and in case of Buffer stimulated and unstimulated controls with DMSO (Carl Roth, Germany) at 50 μM (for a final concentration of 10 μM in the resulting 100 μl sample volume) at 37° C., 5% CO2 for 30 minutes. Subsequently, cells (except those for unstimulated controls) were stimulated with 20 μl per well of PMA (Sigma-Aldrich, USA) at 150 ng/ml in OptiMEM for a final concentration of 25 ng/ml at 37° C., 5% CO2 for 2 hours. In parallel, blocking buffer was removed from the MaxiSorp® plates and plates were washed 4 times with 350 μl TBS-T (Carl Roth, Germany) per well on a 96-head plate washer (Tecan Group, Switzerland). To avoid drying-up, 20 μl TBS were added to each well of the MaxiSorp® plates immediately, followed by the transfer of 80 μl cell-free supernatant per sample. Additionally, 100 μl recombinant human TGFα protein (provided as part of the DuoSet ELISA kit) diluted in TBS at defined concentrations were added to the plate as standard references. Thereafter, 100 μl biotinylated goat anti-human TGFα detection antibody (provided as part of the DuoSet ELISA kit) at 37.5 ng/ml in TBS were added per well and, protected from direct light, plates were incubated at room temperature for 2 hours. After 4 times washing with 350 μl TBS-T (Carl Roth, Germany) per well on a 96-head plate washer (Tecan Group, Switzerland) and careful removal of all buffer traces after the fourth cycle, 100 μl streptavidin-AP (R&D Systems, USA) diluted 1:10,000 in TBS were added to each well and, again protected from direct light, plates were incubated at room temperature for 30 minutes. Following another round of 4 times washing with 350 μl TBS-T (Carl Roth, Germany) per well on a 96-head plate washer (Tecan Group, Switzerland) and careful removal of all buffer traces after the fourth cycle, 100 μl AttoPhos substrate solution (Promega, USA) per well was added for incubation in the dark at room temperature for 1 hour. Using an infinite M1000 (Tecan Group, Switzerland) microplate reader, the fluorescence of each well was collected at an excitation wavelength of 435 nm and an emission wavelength of 555 nm.
The delta between Buffer stimulated and Buffer unstimulated was defined 100% inhibition.

[2] = tested on: TNFα release from LPS-stimulated THP-1 cells (iRhom2/ADAM17-dependent); test: Primary screen (Example 1b): LPS-stimulated TNFα release from THP-1 cells, HTRF; format: cell-based; conditions: Homo sapiens, overnight pre-incubation, LPS 100 ng/mL, 3 h, normalized against 10 μM Batimastat
Procedure: Two separate screens to identify novel small molecule inhibitors of iRhom2/ADAM17 activity were developed. […] Therefore, the primary screen for small molecule inhibitors of iRhom2/ADAM17 was a screen for inhibitors that blocked the release of TNFα from LPS-stimulated THP-1 human myeloid cells, a process that depends on iRhom2 and ADAM17. Since the release of TNFα from THP-1 cells can be blocked at many stages of the LPS/TLR4/iRhom2/ADAM17 pathway, a secondary screen was performed for another iRhom2/ADAM17 selective substrate, Kit-ligand 2 (KL-2) (Maretzky T et al. (July 2013), “iRhom2 controls the substrate selectivity of stimulated ADAM17-dependent ectodomain shedding”, PNAS 110(28): 11433-11438) in a different human cell type, human embryonic kidney cells (HEK 293).
THP-1 cells were plated in low volume 384 wells (10,000 cells per well in 12.6 μL RPMI medium) together with inhibitors or 10 μM BB94 and incubated over night. The next day, TNFα shedding was initiated by stimulation of THP-1 cells with 100 ng/mL LPS (1.8 μL of an 800 ng/mL LPS stock) for 3 hrs at 37° C. The extent of released TNFα was detected with the corresponding HTRF antibodies labeled with europium cryptate (donor) and d2 (acceptor). The HTRF signal was generated by proximity of europium cryptate and d2. All detection reagents were purchased from Cisbio. TNFα detection was performed according to the manufacturer's protocol (Product Insert for Cisbio TNFα (h) Kit Part #62HTNFAPEG & 62HTNFAPEH; https://www.cisbio.com/media/asset/c/i/cisbio_dd_pi_62htnfapeg-62htnfapeh.pdf, accessed Sep. 28, 2020).
Low volume 384 well plates were pre-coated with small molecule library compounds for a final concentration of 20 μM in a 15 μL reaction, or 0.75 μL of 200 μM stock of BB94 in 5% DMSO (final concentration 0.25%). 12.6 μL of cell suspension [8E5/mL; 10,000 cells/well; culture RPMI medium] and pre-incubated at 37° C., 5% CO2, over night. The next day, 1.8 μL of an 800 ng/mL LPS stock was added [final concentration 100 ng/mL in 15 μL assay] and the cells were incubated at 37° C., 5% CO2, for 3 h. Subsequently, 3 μL of the HTRF-mix [used at 1:3 dilution of cisbio HTRF human TNF] was added and the plates were incubated for an additional 2 hrs at 25° C. After an incubation at room temperature for 2 h, the HTRF readout was performed. Then data evaluation for normalization against the 10 μM Batimastat control (=100% […]) was applied.

Structure (SMILES)	inhibition at 10 µM ([1]; PC-3, 2 h)	IC50 [2]	inhibition of PMA-induced release of TGFα from PC3 cells ([1]; 2 hours)	inhibition at 10 µM ([1]; PC-3, 2 hours)
CCOC(=O)c1ccc(Nc2nc3nonc3n3nnnc23)cc1 [Compound 2]	9.1%			
Cc1c(C(=O)NCc2cccs2)sc(=O)n1Cc1ccccc1 [Compound 4]	14.1%	7.57 µM		
O=C(c1c(Cl)cccc1Cl)N1CCC(Cc2ccc(F)cc2)CC1 [Compound 3]	12.5%	< 0.0625 µM		
Cc1c(C(=O)NCc2cccs2)sc(=O)n1Cc1ccccc1F [Compound 5]	11.3%	5.21 µM		
CNC(=O)[C@H](Cc1ccccc1)NC(=O)[C@H](CC(C)C)[C@H](CSc1cccs1)C(=O)NO [Batimastat, reference compound]	104%		102.5%	
CCC(=O)NCCc1c(/C=C2/C(=O)NC(=O)N(c3ccc(C)cc3C)C2=O)[nH]c2ccccc12 [Compound 1]				25.5%
Cc1c(C(=O)NCc2ccco2)sc(=O)n1Cc1ccccc1F [Compound 7]	27.3%	3.93 µM		
